Data as given in BindingDB's records for doi:10.1021/acs.jmedchem.8b00250 (University of Liege, 2018).

Biological target: Glutamate receptor 2 (Homo sapiens, UniProt P42262)
Test: Positive allosteric modulation of GluA2Q flop isoform (unknown origin) expressed in HEK293 cells assessed as increase in L-glutamate induced calcium flux after 1 hr by fluo-4AM dye-based fluorescence assay

Chain of Glutamate receptor 2 (P42262 whole entry, canonical isoform): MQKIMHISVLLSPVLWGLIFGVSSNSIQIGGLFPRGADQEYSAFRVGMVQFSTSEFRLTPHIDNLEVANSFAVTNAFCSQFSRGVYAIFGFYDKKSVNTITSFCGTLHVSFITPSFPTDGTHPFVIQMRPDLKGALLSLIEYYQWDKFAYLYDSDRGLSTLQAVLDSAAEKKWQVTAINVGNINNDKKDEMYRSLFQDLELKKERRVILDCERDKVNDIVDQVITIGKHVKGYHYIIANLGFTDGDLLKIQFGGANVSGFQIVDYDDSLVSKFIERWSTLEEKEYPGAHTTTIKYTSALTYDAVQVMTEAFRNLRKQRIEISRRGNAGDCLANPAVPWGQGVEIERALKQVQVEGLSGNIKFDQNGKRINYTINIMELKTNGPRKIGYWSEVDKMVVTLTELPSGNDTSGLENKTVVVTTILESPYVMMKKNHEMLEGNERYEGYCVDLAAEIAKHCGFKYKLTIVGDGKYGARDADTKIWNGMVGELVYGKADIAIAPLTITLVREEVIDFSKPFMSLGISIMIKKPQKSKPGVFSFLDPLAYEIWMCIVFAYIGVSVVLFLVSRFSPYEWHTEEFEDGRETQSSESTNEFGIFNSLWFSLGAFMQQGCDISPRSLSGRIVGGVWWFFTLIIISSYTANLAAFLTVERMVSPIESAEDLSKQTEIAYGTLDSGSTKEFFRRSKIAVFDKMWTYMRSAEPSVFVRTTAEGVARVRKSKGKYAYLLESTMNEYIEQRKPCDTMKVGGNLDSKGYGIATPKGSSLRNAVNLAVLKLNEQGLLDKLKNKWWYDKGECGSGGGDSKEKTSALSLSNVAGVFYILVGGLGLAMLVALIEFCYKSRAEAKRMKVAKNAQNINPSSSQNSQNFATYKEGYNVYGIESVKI

Compound: O=S1(=O)NCN(C2CC2)c2cc(CCc3ccc4c(c3)N(C3CC3)CNS4(=O)=O)ccc21
- EC50: 1.3 nM
